Test results: patent publication US20030144295A1, “Treatment for ischemic stroke” (YAMANOUCHI PHARMACEUTICAL CO., LTD., priority 2001, published 2003)

Experiments:
AMPA receptor = settings: cited from earlier work
[1] = system: rat embolic stroke models; experiment: Neurological symptoms (Bederson score) in rat embolic stroke models, Example 1; type: in vivo, rat (male Sprague-Dawley); settings: Bederson score 0-3, 24 hours after blood clot injection; administration started 2 hours after clot; alteplase 10 mg/kg i.v., compound A 20 mg/kg/hour for 4 hours; n=8; control 2.5
Procedure: FIG. 2: Effect of a combined use of compound A with alteplase on neurological symptoms in rat embolic stroke models. Administration of zonampanel (20 mg/kg/hr; i.v. for 4 hours) and alteplase (10 mg/kg; i.v.; 10% of the total dose was subjected to an intravenous bolus administration while the remainder (90%) was subjected to an intravenous administration continuously over 1 hour) was initiated 2 hours after the injection of blood clot. After 24 hours from the injection of the blood clot, the neurological symptoms were observed. Data in the drawing show the data derived from each animal (n=8). The symbol * means a statistically significant difference from a control group or an alteplase-administered group (*p<0.05; Steel's test or Wilcoxon-test). […]
(§1) Evaluation of formation of cerebral embolism by injection of blood clot was carried out using a laser Doppler flowmetry (FloC1; Omegawave) and the cerebral blood flow decreased to a level of 30% or less of the blood clot value immediately after ischemia was taken as a positive evidence of embolism formation. […] The cerebral blood flow was monitored until 30 minutes after infusion of the blood clot and the blood flow of 30 minutes after ischemia was confirmed to-remain 50% or less than the value prior to the injection of the blood clot. […]

[2] = cited from earlier work
[3] = system: rat embolic stroke models; experiment: Infarct volume (TTC staining) in rat embolic stroke models, Example 1; type: in vivo, rat (male Sprague-Dawley); settings: 24 hours after blood clot injection; administration started 2 hours after clot; alteplase 10 mg/kg i.v., compound A 20 mg/kg/hour i.v. for 4 hours; n=8; control 361.2±20.9
Procedure: FIG. 1: Effect of a combined use of compound A with alteplase on infarct volume in rat embolic stroke models. Administration of compound A (20 mg/kg/hr; i.v. for 4 hours) and alteplase (10 mg/kg; i.v.; 10% of the total dose was subjected to an intravenous bolus administration while the remainder (90%) was subjected to an intravenous administration continuously over 1 hour) was initiated 2 hours after the injection of blood clot. After 24 hours from the infusion of the blood clot, the brain was excised, sliced and stained with TTC. The data in the drawing show a mean value±standard error (n=8). The symbol * means a statistically significant difference from a control group or an alteplase-administered group (*p<0.05; Dunnett's test or t-test). […]
as §1

Row | Compound | AMPA binding activity (AMPA receptor) | neurological symptom score (median value) [1] | solubility in water [2] | infarct volume (mean value±standard error) [3] [mm^3]
1 | O=C(O)Cn1c(=O)c(=O)[nH]c2cc([N+](=O)[O-])c(-n3ccnc3)cc21 [compound A, [7-(1H-imidazol-1-yl)-6-nitro-2,3-dioxo-3,4-dihydroquinoxalin-1(2H)-yl]acetic acid] | strong and selective | 2 | high | 194.6±50.6
2 | Alteplase [reference compound] |  |  |  | 202.7±49.3
